Patent US8557859B2, “Immunomodulatory compositions” (Summit (Wales) Limited, priority 2003, dated 2013)

Columns and labels:
Dendritic cells = test: Induction of IL-12 secretion in dendritic cells (ELISA); assay type: cell-based, BALB/c mice; conditions: dendritic cells; compounds 50 μg/ml and 20 μg/ml, 24 hrs (or 48 hrs)
Experimental: BALB/c male and female mice bred and maintained at the University of Strathclyde under conventional conditions were used at 8 weeks old.
Bone marrow was obtained from the femurs of mice. The femurs were washed in 70% ethanol and placed in a clean petri dish. Dendritic cell (DC) medium (2.5% granulocyte-macrophage colony-stimulating factor (GM-CSF), 10% […] foetal calf serum, 1% L-glutamine, 1% Penicillin/Streptomycin in RPMI-1640 medium) was injected into the bone marrow of the femur by a pumping action and the cells and medium were collected. 1 ml of the cells in medium was added to a 75 cm^2 flask with 15 mls of DC medium. The flasks were then incubated at 37° C., 5% CO2 to allow DC growth and development. After 5 days an additional 10 mls of DC medium was added.
After 10 days of incubation of bone marrow with GM-CSF, the dendritic cells were harvested. This process was carried out in a tissue culture hood. The contents of the flasks were poured into centrifuge tubes to ensure collection of floating DCs. Approximately 10 mls of cooled phosphate buffered saline (PBS) was added to each empty flask, the flasks gently agitated and the contents collected. […] The collected contents of the flasks were centrifuged for 5 minutes at 200 g and the pellet resuspended in 2 mls of DC medium without GM-CSF. A cell count was then carried out.
Cells were counted using a haemocytometer. Approximately 20 μl of the resuspended cells was pipetted into the chamber of the haemocytometer, the cells were adjusted to the correct cell concentration (approx. 5×10^4, and not less than 1×10^4, per well) and then plated out for assay.
The plates were incubated overnight at 37° C. with 5% CO2 and allowed to settle (harvesting stimulates them). The next day the compounds (50 μg/ml and 20 μg/ml) and controls were added then again incubated at 37° C. with 5% CO2 for 24 hrs (or 48 hrs). Harvesting and addition of the compounds was all done in a hood. The plates were then frozen to kill the cells and once defrosted the supernatant analysed as described below.
Using an enzyme linked immunosorbent assay (ELISA) IL-12 concentration in the supernatants was measured. All reagents used in this assay were from PharMingen. A 96-well flat-bottomed ELISA plate was coated with purified rat anti-mouse IL-12 (p40/p70) MAb (Cat no. 554478) at 2 μg/ml diluted in PBS pH 9.0 at 50 μl/well. The plate was then covered in cling film and incubated at 4° C. Following incubation the plate was washed 3 times in washing buffer and dried. 200 μl of blocking buffer (10% foetal calf serum in PBS pH 7.0) was added to each well then covered in cling film and incubated at 37° C. for 45 minutes. The plate was washed 3 times and dried. Recombinant mouse Il-12 standard was added at 30 μl in duplicate wells, starting at 10 ng/ml then 5, 2.5, 1.25, 0.625, 0.31, 0.156, 0.078, 0.039, 0.020, 0.010, 0.005 ng/ml. Standards were diluted in blocking buffer. The supernatant samples were added in at 50 μl/well. The plate was then covered in cling film and incubated for 2 hours at 37° C. The plate was then washed 4 times, dried and the secondary antibody added.
Biotin labelled anti-mouse IL-12 (p40/p70) MAb (Cat no. 18482D) at 1 μg/ml (diluted in blocking buffer) was added to each well at a volume of 100 μl/well. The plate was covered in cling film and incubated at 37° C. for 1 hour. The plate was then washed 5 times, dried and the conjugate added. Streptavidin-AKP (Cat no. 13043E) at 100 μl/well was added at a dilution of 1/2000 in blocking buffer followed by incubation under cling film at 37° C. for 45 minutes.
The plate was finally washed 6 times, dried and the substrate added. pNPP (Sigma) in glycine buffer at 1 mg/ml was added at 100 μl/well. The plate was then covered in tinfoil, incubated at 37° C. and checked every 30 minutes for a colour change.
The plate was then read at 405 nm using a SPECTRAmax 190 spectrometer.

MCF-7 cells = test: Effect on glycosylation of breast cancer cells; assay type: cell-based; conditions: MCF-7, 0.75 mM; difference from untreated cells at the 62 and 86 hour time points
Experimental: MCF-7 cells (European Collection of Cell Cultures Ref. 86012803) were taken from liquid nitrogen stock, thawed at room temperature and transferred to 10 ml Dulbeccos Modified Eagle's Medium with Hams F12, 15 mM Hepes and L-glutamine (DMEM: Cambrex Cat. No. BE12-719F) supplemented with 10% v/v foetal calf serum (FCS: BioWest Labs Cat. No. S02755, Lot. No. S1800). The FCS was pre-filtered through a 0.2 μm steril filter.
The cells were then centrifuged at 1,500 rpm in a Centaur bench-top centrifuge and the supernatant removed. The cells were reconstituted in fresh media and seeded into two T75 cm^3 Nunclon tissue culture flasks and allowed to settle overnight at 37° C. in a 5% CO2 incubator. The flasks were wrapped in cling film to prevent cross-contamination and the following day the media was changed to include the antibiotics penicillin and streptomycin as a precautionary measure against infection (at concentrations of 1 mg/cm^3 and 5 mg/cm^3, respectively). […]
The cells were harvested using a non-enzymatic method. At each of the time points the cells were viewed under the inverted light microscope and the morphology evaluated. […] The number of cells was then counted in a haemocytometer and cell viability evaluated by mixing 0.1 cm^3 of each cell suspension with a drop of trypan blue solution. […]
Evaluated using the BioRad protein assay according to the manufacturer's instructions. […]

OC[C@@H]1[C@@H](O)[C@H](O)[C@H]2[C@H](O)[C@@H](O)CN21 [casuarine (8), (1R,2R,3R,6S,7S,7aR)-3-(hydroxymethyl)-1,2,6,7-tetrahydroxypyrrolizidine]
IL-12 RELEASE (Dendritic cells): Yes | glycan synthesis and/or N-linked glycosylation in breast cancer cells (MCF-7 cells): can inhibit glycan synthesis and/or N-linked glycosylation
